The source made the active and inactive calls. The calls are words filed in the database; no cut-off is given here.
How the values were obtained:
[1] = Activation of autophagy in human SH-SY5Y cells expressing GFP-LC3-RFP assessed as green-to-red signal ratio at 250 mkM relative to control; type: functional; details: at 250 µM
[2] = Activation of autophagy in human SH-SY5Y cells expressing GFP-LC3-RFP assessed as green-to-red signal ratio at 25 mkM relative to control; type: functional; details: at 25 µM
[3] = Activation of autophagy in human SH-SY5Y cells expressing GFP-LC3-RFP assessed as green-to-red signal ratio at 2.5 mkM relative to control; type: functional; details: at 2.5 µM
[4] = tested on: SH-SY5Y; test: Activation of autophagy in human SH-SY5Y cells expressing GFP-LC3-RFP assessed as increase in LC3-II level at 25 to 250 mkM by Western blot analysis; type: functional, cell-based; details: dose 25-250 mkM
[5] = tested on: SH-SY5Y; test: Activation of mitophagy in human SH-SY5Y cells expressing GFP-LC3-RFP assessed as increase in phospho-ubiquitin level at 25 to 250 mkM by Western blot analysis; type: functional, cell-based; details: dose 25-250 mkM
[6] = tested on: SH-SY5Y; test: Effect on AKT phosphorylation at T308 in human SH-SY5Y cells expressing GFP-LC3-RFP at 25 to 250 mkM by Western blot analysis; type: functional, cell-based; details: dose 25-250 mkM
[7] = tested on: SH-SY5Y; test: Effect on TSC2 phosphorylation in human SH-SY5Y cells expressing GFP-LC3-RFP at 25 to 250 mkM by Western blot analysis; type: functional, cell-based; details: dose 25-250 mkM
[8] = tested on: SH-SY5Y; test: Activation of autophagy in human SH-SY5Y cells expressing GFP-LC3-RFP assessed as increase in AMPK phosphorylation by Western blot analysis; type: functional, cell-based; details: dose 25-250 mkM
[9] = tested on: SH-SY5Y; test: Activation of autophagy in human SH-SY5Y cells expressing GFP-LC3-RFP assessed as increase in ULK1 phosphorylation at S555 at 25 to 250 mkM by Western blot analysis; type: functional, cell-based; details: dose 25-250 mkM
[10] = tested on: SH-SY5Y; test: Activation of autophagy in human SH-SY5Y cells expressing GFP-LC3-RFP assessed as increase in Beclin-1 level at 25 to 250 mkM by Western blot analysis; type: functional, cell-based; details: dose 25-250 mkM
[11] = tested on: SH-SY5Y; test: Activation of autophagy in human SH-SY5Y cells expressing SIRT1-/-/GFP-LC3-RFP assessed as increase in green-to-red signal ratio at 25 to 250 mkM; type: functional, cell-based; details: dose 25-250 mkM
[12] = tested on: SH-SY5Y; test: Activation of autophagy in human SH-SY5Y cells expressing AMPK-/-/GFP-LC3-RFP assessed as increase in green-to-red signal ratio at 25 to 250 mkM; type: functional, cell-based; details: dose 25-250 mkM
[13] = tested on: SH-SY5Y; test: Activation of autophagy in human SH-SY5Y cells expressing GFP-LC3-RFP assessed as increase in LC3-II level at 250 mkM by Western blot analysis; type: functional, cell-based
[14] = tested on: SH-SY5Y; test: Activation of autophagy in human SH-SY5Y cells expressing GFP-LC3-RFP assessed as increase in AMPK phosphorylation at 25 to 250 mkM by Western blot analysis; type: functional, cell-based; details: dose 25-250 mkM
[15] = tested on: SH-SY5Y; test: Downregulation of ULK phosphorylation at S757 in human SH-SY5Y cells expressing GFP-LC3-RFP at 25 to 250 mkM by Western blot analysis; type: functional, cell-based; details: dose 25-250 mkM
[16] = tested on: SH-SY5Y; test: Downregulation of 4E-BP1 phosphorylation in human SH-SY5Y cells expressing GFP-LC3-RFP at 25 to 250 mkM by Western blot analysis; type: functional, cell-based; details: dose 25-250 mkM

| SMILES | Ratio [1] [%] | Ratio [2] [%] | Ratio [3] [%] | Activity [4] | Activity [5] | Activity [6] | Activity [7] | Activity [8] | Activity [9] | Activity [10] | Activity [11] | Activity [12] | Activity [13] | Activity [14] | Activity [15] | Activity [16] |
| --- | --- | --- | --- | --- | --- | --- | --- | --- | --- | --- | --- | --- | --- | --- | --- | --- |
| Nc1ncnc2c1[nH]c(=O)n2[C@H]1C[C@H](O)[C@@H](CO)O1 | 5.41 | 1.85 | 1.85 | Active; Exhibited Moderate Activity | inactive | Active | inactive | Dose-dependent-effect | Active | Active | Active | Active |  |  |  |  |
| Nc1ncnc2c1[nH]c(=O)n2COCCO | 2.59 | -2.79 | -0.47 | Not active; Exhibited Weakest Activity Among Tested Compounds |  |  |  |  |  |  |  |  | Active |  |  |  |
| O=c1[nH]c2c(ncn3ccnc23)n1[C@@H]1O[C@H](CO)[C@@H](O)[C@H]1O | -0.79 | -1.76 | -1.32 |  |  |  |  |  |  |  |  |  |  |  |  |  |
| CNc1ncnc2c1ncn2[C@@H]1O[C@H](CO)[C@@H](O)[C@H]1O | 3.36 | -1.43 | -1.2 | Not active; Exhibited Weakest Activity Among Tested Compounds |  |  |  |  |  |  |  |  | Active |  |  |  |
| CCC(CC)COC(=O)[C@@H](C)N[P@](=O)(OC[C@H]1O[C@@H](n2cnc3c(NC)ncnc32)[C@H](O)[C@@H]1O)Oc1ccccc1 | 7.26 | 0.44 | -3.79 | Active; Exhibited Higher Activity Compared To Parent Compound | inactive | inactive |  |  | Active |  | Active | Active |  | Active | Active; Result Provides Indirect Evidence Of Mtor Inhibition | Active; Result Provides Indirect Evidence Of Mtor Inhibition |
| Nc1nc2c([nH]c(=O)n2[C@H]2C[C@H](O)[C@@H](CO)O2)c(=O)[nH]1 | 1.94 | 1.51 | -0.68 |  |  |  |  |  |  |  |  |  |  |  |  |  |
| Nc1ncnc2c1nc(Br)n2COCCO | -0.4 | 1.28 | 1.31 |  |  |  |  |  |  |  |  |  |  |  |  |  |
| Nc1ncnc2c1[nH]c(=O)n2[C@@H]1O[C@H](CO)[C@@H](O)[C@H]1O | 5.71 | 3.62 | 1.31 | Active; Exhibited Moderate Activity | inactive | Active | inactive | Dose-dependent-effect | Active | Active | Active | Active |  |  |  |  |
| Nc1ncnc2c1nc(Br)n2[C@H]1C[C@H](O)[C@@H](CO)O1 | 0.2 | 3.16 | 1.78 |  |  |  |  |  |  |  |  |  |  |  |  |  |

Source: ChEMBL document CHEMBL6083233, “Modified (2'-deoxy)adenosines activate autophagy primarily through AMPK/ULK1-dependent pathway” (2024)
